Among the data in ChEMBL document CHEMBL1909046, “DrugMatrix in vitro pharmacology data” are IC50 and Ki values, retold here.

Data set [1] has as its target T1, Alpha-2C adrenergic receptor (Homo sapiens, UniProt P18825).
T1 sequence (P18825 whole entry): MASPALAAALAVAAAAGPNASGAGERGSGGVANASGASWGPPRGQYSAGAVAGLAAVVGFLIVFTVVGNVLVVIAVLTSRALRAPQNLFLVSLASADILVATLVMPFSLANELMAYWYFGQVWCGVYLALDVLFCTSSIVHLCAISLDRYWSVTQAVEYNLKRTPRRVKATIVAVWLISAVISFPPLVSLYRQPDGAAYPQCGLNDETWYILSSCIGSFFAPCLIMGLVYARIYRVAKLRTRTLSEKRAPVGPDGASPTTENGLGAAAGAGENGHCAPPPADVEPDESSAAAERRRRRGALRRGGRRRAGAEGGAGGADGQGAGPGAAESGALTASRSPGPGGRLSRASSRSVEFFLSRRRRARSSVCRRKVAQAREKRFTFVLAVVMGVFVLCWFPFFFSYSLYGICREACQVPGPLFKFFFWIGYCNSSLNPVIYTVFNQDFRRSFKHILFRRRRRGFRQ
The experiment in a line: DRUGMATRIX: Adrenergic Alpha-2C radioligand binding (ligand: [3H] MK-912). Type of data set: cell membranes, Sf9, Membrane. Particulars: sf9.

The target of data set [2] is T2, Cholecystokinin receptor type A (Homo sapiens, UniProt P32238). Note: in other assays of this panel Not Active means under 50% inhibition at 10 µM.
T2 sequence (P32238 whole entry): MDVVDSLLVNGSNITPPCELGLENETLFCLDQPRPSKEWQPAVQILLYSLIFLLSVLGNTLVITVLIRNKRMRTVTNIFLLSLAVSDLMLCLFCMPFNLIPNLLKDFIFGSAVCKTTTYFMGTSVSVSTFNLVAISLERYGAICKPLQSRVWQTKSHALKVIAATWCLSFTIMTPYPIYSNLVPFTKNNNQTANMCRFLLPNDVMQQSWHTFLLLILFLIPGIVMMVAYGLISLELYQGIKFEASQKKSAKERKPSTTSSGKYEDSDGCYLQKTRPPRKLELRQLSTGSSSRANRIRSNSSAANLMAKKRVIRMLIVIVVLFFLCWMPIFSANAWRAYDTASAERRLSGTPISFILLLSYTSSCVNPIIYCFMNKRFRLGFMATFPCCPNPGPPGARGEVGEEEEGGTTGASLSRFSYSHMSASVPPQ
It is filed as cell membranes, Membrane. Particulars: 1321-n1.

For another data set, the target named is T3, Endothelin-1 receptor (Homo sapiens, UniProt P25101). Note: in other assays of this panel Not Active means under 50% inhibition at 10 µM.
T3 sequence (P25101 whole entry): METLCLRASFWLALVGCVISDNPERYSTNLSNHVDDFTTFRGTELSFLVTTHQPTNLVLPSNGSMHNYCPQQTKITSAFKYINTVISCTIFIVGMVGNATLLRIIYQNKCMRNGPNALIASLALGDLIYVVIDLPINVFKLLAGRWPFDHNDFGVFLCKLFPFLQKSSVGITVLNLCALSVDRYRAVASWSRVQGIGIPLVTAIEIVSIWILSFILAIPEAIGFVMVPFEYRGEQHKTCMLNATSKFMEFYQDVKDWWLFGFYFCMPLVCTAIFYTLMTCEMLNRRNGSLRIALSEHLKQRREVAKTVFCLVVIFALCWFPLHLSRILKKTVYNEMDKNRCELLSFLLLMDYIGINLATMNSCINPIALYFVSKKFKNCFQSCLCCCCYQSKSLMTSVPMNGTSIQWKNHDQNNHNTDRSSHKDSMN
Type of data set: cell membranes, CHO-K1, Membrane. Conditions: for IC50: cho-k1.

In another data set the target is T4, Cathepsin G (Homo sapiens, UniProt P08311).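 Note: inhibition of Cathepsin G enzyme activity, tested on an AMC-conjugated peptide substrate; in other assays of this panel Not Active means under 50% inhibition at 10 µM.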
T4 sequence (P08311 whole entry): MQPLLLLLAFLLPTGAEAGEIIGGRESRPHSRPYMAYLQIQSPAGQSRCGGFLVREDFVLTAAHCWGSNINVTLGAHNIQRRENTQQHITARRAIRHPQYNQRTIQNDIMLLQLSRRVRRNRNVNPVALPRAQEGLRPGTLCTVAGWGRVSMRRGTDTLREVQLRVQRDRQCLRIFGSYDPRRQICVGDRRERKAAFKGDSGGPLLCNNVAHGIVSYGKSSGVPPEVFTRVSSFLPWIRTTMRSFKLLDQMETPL
It is filed as tissue-based. Conditions: neutrophil.

In data set [3] the target is Epidermal growth factor receptor (Homo sapiens, UniProt P00533). Nature of the data set: DRUGMATRIX: Protein Tyrosine Kinase, EGF Receptor enzyme inhibition (substrate: Poly(Glu:Tyr)). Type of data set: cell-based, Insect cells. Particulars: Not Active = under 50% inhibition at 10 µM; for IC50: insect cells.
Data set [4] has as its target Receptor tyrosine-protein kinase erbB-2 (Homo sapiens, UniProt P04626). Nature of the data set: biochemical. It is filed as cell-based, Insect cells. Conditions: for IC50: insect cells; for pIC50: read-out: IC50.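 For all read-outs here: inhibition of HER2 kinase enzyme activity, measured with Poly(Glu:Tyr) as the phosphorylation substrate; in other assays of this panel Not Active means under 50% inhibition at 10 µM.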
The target of data set [5] is Voltage-gated inwardly rectifying potassium channel KCNH2 (Homo sapiens, UniProt Q12809). Particulars: hek293. Note: in other assays of this panel Not Active means under 50% inhibition at 10 µM.

pIC50, pKi: −log10 of the molar value.

Chain of Epidermal growth factor receptor (P00533 whole entry): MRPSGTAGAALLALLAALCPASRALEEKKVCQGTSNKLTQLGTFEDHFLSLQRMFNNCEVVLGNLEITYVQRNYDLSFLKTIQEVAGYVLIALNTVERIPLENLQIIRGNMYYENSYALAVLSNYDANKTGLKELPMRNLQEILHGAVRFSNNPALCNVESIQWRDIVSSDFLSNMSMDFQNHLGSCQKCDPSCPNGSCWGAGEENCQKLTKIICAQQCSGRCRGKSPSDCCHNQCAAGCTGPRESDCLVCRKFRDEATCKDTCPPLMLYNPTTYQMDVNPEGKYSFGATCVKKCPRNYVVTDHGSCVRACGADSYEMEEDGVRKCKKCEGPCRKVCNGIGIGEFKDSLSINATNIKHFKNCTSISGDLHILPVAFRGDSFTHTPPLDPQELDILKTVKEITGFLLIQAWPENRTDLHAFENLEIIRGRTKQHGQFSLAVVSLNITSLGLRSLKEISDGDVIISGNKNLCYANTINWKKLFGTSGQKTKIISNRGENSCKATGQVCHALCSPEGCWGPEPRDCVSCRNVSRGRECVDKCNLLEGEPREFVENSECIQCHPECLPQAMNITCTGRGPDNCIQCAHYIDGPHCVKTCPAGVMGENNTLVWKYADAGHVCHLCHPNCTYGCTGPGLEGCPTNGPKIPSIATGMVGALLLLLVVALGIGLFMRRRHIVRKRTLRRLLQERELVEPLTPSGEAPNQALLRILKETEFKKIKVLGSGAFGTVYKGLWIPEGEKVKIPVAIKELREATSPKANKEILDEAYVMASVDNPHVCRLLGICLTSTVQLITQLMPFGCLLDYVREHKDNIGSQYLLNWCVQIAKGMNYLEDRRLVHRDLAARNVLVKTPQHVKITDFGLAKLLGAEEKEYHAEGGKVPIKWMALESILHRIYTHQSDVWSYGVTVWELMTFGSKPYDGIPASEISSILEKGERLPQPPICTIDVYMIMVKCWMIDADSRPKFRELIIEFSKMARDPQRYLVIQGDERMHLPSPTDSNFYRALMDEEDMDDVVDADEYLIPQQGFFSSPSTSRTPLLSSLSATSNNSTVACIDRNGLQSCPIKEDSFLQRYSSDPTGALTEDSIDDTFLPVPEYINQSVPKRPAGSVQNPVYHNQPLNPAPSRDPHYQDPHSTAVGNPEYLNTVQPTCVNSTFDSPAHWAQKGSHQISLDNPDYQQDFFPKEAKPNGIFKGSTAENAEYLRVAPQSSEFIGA
Chain of Voltage-gated inwardly rectifying potassium channel KCNH2 (Q12809 whole entry): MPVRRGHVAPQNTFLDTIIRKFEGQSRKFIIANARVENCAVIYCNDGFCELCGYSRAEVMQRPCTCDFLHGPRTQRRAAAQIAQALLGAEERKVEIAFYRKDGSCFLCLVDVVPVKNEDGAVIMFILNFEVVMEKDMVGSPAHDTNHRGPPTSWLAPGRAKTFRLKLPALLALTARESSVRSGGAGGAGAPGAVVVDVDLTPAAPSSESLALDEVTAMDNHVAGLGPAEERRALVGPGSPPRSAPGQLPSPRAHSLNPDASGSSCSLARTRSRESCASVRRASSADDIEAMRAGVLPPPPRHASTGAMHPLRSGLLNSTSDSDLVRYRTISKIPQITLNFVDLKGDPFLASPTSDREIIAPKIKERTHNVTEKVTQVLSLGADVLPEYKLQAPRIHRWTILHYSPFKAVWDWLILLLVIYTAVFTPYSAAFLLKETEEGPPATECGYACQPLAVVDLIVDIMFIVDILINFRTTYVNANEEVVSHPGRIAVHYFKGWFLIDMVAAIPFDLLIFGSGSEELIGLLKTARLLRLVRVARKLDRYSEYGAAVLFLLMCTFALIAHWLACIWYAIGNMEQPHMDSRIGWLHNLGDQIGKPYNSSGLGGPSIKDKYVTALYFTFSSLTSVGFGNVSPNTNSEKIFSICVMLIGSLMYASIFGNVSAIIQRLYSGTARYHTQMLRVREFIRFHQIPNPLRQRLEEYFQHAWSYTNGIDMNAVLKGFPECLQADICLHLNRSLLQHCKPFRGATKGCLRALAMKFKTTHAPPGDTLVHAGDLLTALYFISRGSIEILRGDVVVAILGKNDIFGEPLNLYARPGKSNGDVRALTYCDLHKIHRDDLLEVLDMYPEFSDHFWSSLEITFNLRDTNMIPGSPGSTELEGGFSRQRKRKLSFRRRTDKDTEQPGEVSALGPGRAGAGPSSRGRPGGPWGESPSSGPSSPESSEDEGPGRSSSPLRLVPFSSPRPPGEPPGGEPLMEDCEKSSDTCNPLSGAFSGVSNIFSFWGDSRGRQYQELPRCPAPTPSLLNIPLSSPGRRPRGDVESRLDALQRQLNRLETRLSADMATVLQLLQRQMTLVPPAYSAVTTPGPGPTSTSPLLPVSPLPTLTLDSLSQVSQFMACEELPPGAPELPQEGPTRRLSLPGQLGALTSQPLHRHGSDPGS
Chain of Receptor tyrosine-protein kinase erbB-2 (P04626 whole entry): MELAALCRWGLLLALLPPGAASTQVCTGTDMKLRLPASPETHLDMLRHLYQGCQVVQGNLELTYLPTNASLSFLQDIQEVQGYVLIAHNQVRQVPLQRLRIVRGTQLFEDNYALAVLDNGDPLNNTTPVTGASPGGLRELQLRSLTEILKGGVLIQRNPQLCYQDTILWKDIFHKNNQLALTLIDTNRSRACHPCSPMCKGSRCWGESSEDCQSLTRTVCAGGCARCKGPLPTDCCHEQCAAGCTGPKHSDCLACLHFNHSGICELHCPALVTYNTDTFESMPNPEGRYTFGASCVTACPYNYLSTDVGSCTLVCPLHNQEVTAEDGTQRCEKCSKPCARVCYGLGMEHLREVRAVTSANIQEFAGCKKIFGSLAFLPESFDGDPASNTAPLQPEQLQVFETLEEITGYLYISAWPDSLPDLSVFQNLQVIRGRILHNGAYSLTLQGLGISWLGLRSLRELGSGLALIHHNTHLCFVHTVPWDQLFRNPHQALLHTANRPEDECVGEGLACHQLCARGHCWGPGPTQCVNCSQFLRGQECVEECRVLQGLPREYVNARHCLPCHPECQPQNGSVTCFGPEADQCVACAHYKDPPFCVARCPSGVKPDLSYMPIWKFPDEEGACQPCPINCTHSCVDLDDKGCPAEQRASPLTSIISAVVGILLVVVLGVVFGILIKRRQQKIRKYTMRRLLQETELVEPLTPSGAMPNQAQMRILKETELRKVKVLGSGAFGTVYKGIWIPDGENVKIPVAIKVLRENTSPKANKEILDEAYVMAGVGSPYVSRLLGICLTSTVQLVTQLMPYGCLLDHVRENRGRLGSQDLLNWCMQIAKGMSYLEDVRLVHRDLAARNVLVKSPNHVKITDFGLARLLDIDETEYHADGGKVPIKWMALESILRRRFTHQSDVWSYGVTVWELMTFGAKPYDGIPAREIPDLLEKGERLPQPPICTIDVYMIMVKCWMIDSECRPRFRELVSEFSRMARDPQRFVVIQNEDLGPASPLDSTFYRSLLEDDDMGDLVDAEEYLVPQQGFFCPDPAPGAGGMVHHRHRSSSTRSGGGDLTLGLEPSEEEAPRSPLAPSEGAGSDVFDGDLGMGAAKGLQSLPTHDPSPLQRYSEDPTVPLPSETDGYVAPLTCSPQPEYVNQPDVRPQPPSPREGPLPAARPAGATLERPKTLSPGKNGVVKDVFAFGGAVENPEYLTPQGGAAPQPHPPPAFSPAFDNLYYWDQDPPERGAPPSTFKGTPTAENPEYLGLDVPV

On to `Cc1c(C)c2c(c(C)c1O)CCC(C)(COc1ccc(CC3SC(=O)NC3=O)cc1)O2` (stereo not given) [TROGLITAZONE], for which the IC50 result (in data set [1]; in data set [2]; against Endothelin-1 receptor; at Cathepsin G; in data set [3]; in data set [4]) was “Not Active” each time. Besides, the IC50 result in data set [5] is reported as “Not Active”. Besides, in data set [5], the Ki result is reported as “Not Active”.

As for `c1ccc([C@H]2CN3CCSC3=N2)cc1` [LEVAMISOLE], the IC50 result (in data set [1]; in data set [2]; against Endothelin-1 receptor; against Cathepsin G; in data set [3]; in data set [4]) was “Not Active” in each case. For the same molecule, the IC50 entry in data set [5] is “Not Active”. Further, the Ki result in data set [5] is “Not Active”.

Regarding `CC[C@]1(O)C[C@H]2CN(CCc3c([nH]c4ccccc34)[C@@](C(=O)OC)(c3cc4c(cc3OC)N(C=O)[C@H]3[C@@](O)(C(=O)OC)[C@H](OC(C)=O)[C@]5(CC)C=CCN6CC[C@]43[C@@H]65)C2)C1` [VINCRISTINE], the IC50 entry (in data set [1]; in data set [2]; against Endothelin-1 receptor; against Cathepsin G; in data set [3]; in data set [4]) was “Not Active” in each case. The IC50 entry in data set [5] was “Not Active”. For the same molecule, the Ki result in data set [5] is recorded as “Not Active”.

For the molecule `O=c1ncn2nc(Sc3ccc(F)cc3F)ccc2c1-c1c(Cl)cccc1Cl` [NEFLAMAPIMOD], the IC50 result (in data set [1]; in data set [2]; on Endothelin-1 receptor; at Cathepsin G; in data set [3]; in data set [4]) was “Not Active” each time. Moreover, the IC50 entry in data set [5] is recorded as “Not Active”. For the same molecule, in data set [5], the Ki entry is given as “Not Active”.

As for `NS(=O)(=O)c1cc2c(cc1Cl)NC(C(Cl)Cl)NS2(=O)=O` (stereo not given) [TRICHLORMETHIAZIDE], the IC50 entry (in data set [1]; in data set [2]; against Endothelin-1 receptor; against Cathepsin G; in data set [3]; in data set [4]) was “Not Active” in each case. In addition, in data set [5], the IC50 result is recorded as “Not Active”. Besides, the Ki entry in data set [5] was “Not Active”.

In the case of `CCCOc1ccccc1-c1nc2nn[nH]c2c(=O)[nH]1` [ZAPRINAST], the IC50 entry (in data set [1]; in data set [2]; on Endothelin-1 receptor; against Cathepsin G; in data set [3]; in data set [4]) was “Not Active” throughout. In data set [5], the IC50 result is “Not Active”. In addition, the Ki result in data set [5] was “Not Active”.

Turning to `N#CC(C#N)=Cc1ccc(O)c(O)c1` [TYRPHOSTIN 23], the IC50 entry (in data set [1]; in data set [2]; at Endothelin-1 receptor; against Cathepsin G; in data set [4]; in data set [5]) was “Not Active” in each case. For the same molecule, the Ki result in data set [5] is given as “Not Active”.

As to `C=CCC1(C(C)CCC)C(=O)NC(=O)NC1=O` (stereo not given) [SECOBARBITAL], the IC50 entry (in data set [1]; in data set [2]; against Endothelin-1 receptor; on Cathepsin G; in data set [3]; in data set [4]) was “Not Active” in each case. Besides, the IC50 entry in data set [5] is recorded as “Not Active”. Moreover, the Ki result in data set [5] is reported as “Not Active”.

With `OCCN(CCO)c1nc(N2CCCCC2)c2nc(N(CCO)CCO)nc(N3CCCCC3)c2n1` [DIPYRIDAMOLE], the IC50 entry (in data set [1]; in data set [2]; on Endothelin-1 receptor; at Cathepsin G; in data set [3]; in data set [4]) was “Not Active” in each case. The IC50 entry in data set [5] was “Not Active”. In addition, the Ki result in data set [5] is on record as “Not Active”.

For the molecule `Nc1c2c(nc3ccccc13)CCCC2` [TACRINE], the IC50 entry (in data set [1]; in data set [2]; against Endothelin-1 receptor; against Cathepsin G; in data set [3]; in data set [4]) was “Not Active” in each case. Besides, the IC50 entry in data set [5] is “Not Active”. For the same molecule, the Ki result in data set [5] was “Not Active”.

Consider `N[C@@H]1[C@H]2CN(c3nc4c(cc3F)c(=O)c(C(=O)O)cn4-c3ccc(F)cc3F)C[C@@H]12` [TROVAFLOXACIN], for which the IC50 entry (in data set [1]; in data set [2]; against Endothelin-1 receptor; at Cathepsin G; in data set [4]; in data set [5]) was “Not Active” in each case. Also, the Ki entry in data set [5] is given as “Not Active”.

`CC/C(=C(\c1ccccc1)c1ccc(OCCN(C)C)cc1)c1ccccc1` [TAMOXIFEN]: the IC50 entry (in data set [1]; in data set [2]; against Endothelin-1 receptor; against Cathepsin G) was “Not Active” in each case. Also, the pIC50 in data set [3] (read-out: IC50) was 5.45; in data set [4], 5.53.

Consider `Nc1nc2ccc(OC(F)(F)F)cc2s1` [RILUZOLE], for which the IC50 entry (in data set [1]; in data set [2]; at Endothelin-1 receptor; against Cathepsin G; in data set [3]; in data set [4]) was “Not Active” each time.

For `Cc1noc(NS(=O)(=O)c2ccc(N)cc2)c1C` [SULFISOXAZOLE], the IC50 result (in data set [1]; in data set [2]; at Cathepsin G; in data set [3]; in data set [4]; in data set [5]) was “Not Active” throughout. For the same molecule, in data set [5], the Ki result is “Not Active”.

As to `CN1CCN(CCCN2c3ccccc3Sc3ccc(Cl)cc32)CC1` [PROCHLORPERAZINE], the IC50 result (in data set [2]; against Endothelin-1 receptor; against Cathepsin G; in data set [3]; in data set [4]) was “Not Active” each time.

As for `CCOC(=O)N1CCC(=C2c3ccc(Cl)cc3CCc3cccnc32)CC1` [LORATADINE], the IC50 result (in data set [1]; in data set [2]; against Endothelin-1 receptor; against Cathepsin G; in data set [3]; in data set [4]) was “Not Active” each time.

On to `Cc1nc2n(c(=O)c1CCN1CCC(c3noc4cc(F)ccc34)CC1)CCCC2` [RISPERIDONE], for which the IC50 entry (in data set [2]; at Endothelin-1 receptor; on Cathepsin G; in data set [3]; in data set [4]) was “Not Active” throughout.

Turning to `Nc1nc2nc[nH]c2c(=S)[nH]1` [THIOGUANINE], the IC50 entry (in data set [1]; in data set [2]; on Endothelin-1 receptor; at Cathepsin G; in data set [3]; in data set [4]) was “Not Active” each time.

In the case of `CCCCc1oc2ccccc2c1C(=O)c1cc(I)c(OCCN(CC)CC)c(I)c1` [AMIODARONE], the IC50 result (in data set [1]; in data set [2]; against Cathepsin G; in data set [3]) was “Not Active” each time. Besides, the results for the pIC50 (on Endothelin-1 receptor (read-out: IC50); in data set [4]) were 4.58 and 5.04, respectively. On Endothelin-1 receptor (read-out: Ki), the pKi was 4.79.

As for `C[C@@H]1CN(c2c(F)c(N)c3c(=O)c(C(=O)O)cn(C4CC4)c3c2F)C[C@H](C)N1` [SPARFLOXACIN], the IC50 entry (in data set [1]; in data set [2]; against Endothelin-1 receptor; against Cathepsin G; in data set [3]; in data set [4]) was “Not Active” throughout.

Broadly, the pIC50 is the negative decadic logarithm of the IC50, by convention in mol/L. In general, pKi refers to the Ki on a negative log10 scale, so that one unit is a factor of ten.
